Molecules are shown by their SMILES.

Human TASK-1 channels, sequence (O14649 whole entry): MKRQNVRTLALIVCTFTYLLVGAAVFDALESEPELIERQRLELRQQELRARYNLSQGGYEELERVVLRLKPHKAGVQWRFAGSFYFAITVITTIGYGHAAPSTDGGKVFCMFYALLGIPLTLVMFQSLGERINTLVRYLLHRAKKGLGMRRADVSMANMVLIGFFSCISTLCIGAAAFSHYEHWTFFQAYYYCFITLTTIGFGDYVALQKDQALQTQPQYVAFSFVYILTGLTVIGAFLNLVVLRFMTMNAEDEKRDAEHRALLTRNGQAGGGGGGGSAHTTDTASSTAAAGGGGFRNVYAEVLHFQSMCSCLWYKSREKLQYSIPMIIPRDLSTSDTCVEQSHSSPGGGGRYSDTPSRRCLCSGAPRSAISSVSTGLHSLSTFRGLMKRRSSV

In one assay the target is Human TASK-1 channels (Homo sapiens (Human), UniProt O14649). Description: Activity on the TASK-1 channel in Xenopus oocytes (two-microelectrode voltage clamp). Type of assay: cell-based. The note with it: 5 μM; percentage inhibition of TASK-1 control current, Xenopus oocytes. The protocol:
Determination of the activity on the TASK-1 channel in Xenopus oocytes:
Human TASK-1 channels were expressed in Xenopus oocytes. For this purpose, oocytes were isolated from Xenopus laevis and defolliculated. Subsequently, TASK-1-encoding RNA synthesized in vitro was injected into oocytes. After two days of TASK-1 protein expression, TASK-1 currents were measured by two-microelectrode voltage clamp. Data were acquired and analyzed using a TEC-10cx amplifier (NPI Electronic, Tamm, Germany) connected to an ITC-16 interface (Instrutech Corp., Long Island, USA) and Pulse software (HEKA Elektronik, Lambrecht, Germany). Oocytes were clamped to −90 mV and TASK-1 mediated currents were measured during 500 ms voltage pulses to 40 mV. Oocytes were continuously superfused with ND96 buffer containing: NaCl 96 mM, KCl2 mM, CaCl2 1.8 mM, MgCl2 1 mM, HEPES 5 mM (pH adjusted to 7.4 with NaOH). All experiments were performed at room temperature.
Test substances were consecutively added to the bath solution at rising concentrations. Compound effects were calculated as the percentage inhibition of
TASK-1 control current before compound application. IC50 values were obtained by fitting the data to the general dose-response equation.
In turn, `CC(=O)N1CCc2c(c(-c3ccc(C(F)(F)F)cc3)nn2[C@@H]2c3cc(F)cc(F)c3C[C@H]2O)C1` [Example 11ae, 1-[1-((1R,2R)-4,6-Difluoro-2-hydroxy-indan-1-yl)-3-(4-trifluoromethyl-phenyl)-1,4,6,7-tetrahydro-pyrazolo[4,3-c]pyridin-5-yl]-ethanone] had an inhibition at 5 µM of 61%.

The same assay, now with this note: human TASK-1 expressed in Xenopus oocytes, currents during 500 ms pulses to 40 mV, room temperature.
The compound `CC(=O)N1CCc2c(c(-c3ccc(F)cc3)nn2[C@@H]2c3c(Cl)cc(Cl)cc3C[C@H]2O)C1` (racemic) [Example 11ac, racemic 1-[1-((1R,2R)-5,7-Dichloro-2-hydroxy-indan-1-yl)-3-(4-fluoro-phenyl)-1,4,6,7-tetrahydro-pyrazolo[4,3-c]pyridin-5-yl]-ethanone] had an IC50 of 3.88 µM.

Consider `CC(=O)N1CCc2c(c(-c3ccc(F)c(C(F)(F)F)c3)nn2[C@H]2c3cc(F)cc(F)c3C[C@]2(C)O)C1` (racemic) [Example 11i, racemic 1-[1-((1S,2S)-4,6-Difluoro-2-hydroxy-2-methyl-indan-1-yl)-3-(4-fluoro-3-trifluoromethyl-phenyl)-1,4,6,7-tetrahydro-pyrazolo[4,3-c]pyridin-5-yl]-ethanone], for which inhibition was half-maximal at 0.375 µM (IC50).

`CC(=O)N1CCc2c(c(-c3ccc(F)cc3)nn2[C@@H]2c3cc(Cl)c(Cl)cc3C[C@H]2O)C1` (racemic) [Example 11u, racemic 1-[1-((1R,2R)-5,6-Dichloro-2-hydroxy-indan-1-yl)-3-(4-fluoro-phenyl)-1,4,6,7-tetrahydro-pyrazolo[4,3-c]pyridin-5-yl]-ethanone] had an IC50 of 1.01 µM.

On to `CC(=O)N1CCc2c(c(-c3cccc(C#N)c3)nn2[C@@H]2c3cc(F)cc(F)c3C[C@@]2(C)O)C1` (racemic) [Example 11w, Racemic 3-[5-Acetyl-1-((1R,2R)-4,6-difluoro-2-hydroxy-2-methyl-indan-1-yl)-4,5,6,7-tetrahydro-1H-pyrazolo[4,3-c]pyridin-3-yl]-benzonitrile], for which the IC50 was determined as 1.26 µM.

`CC(=O)N1CCc2c(c(-c3cccc(OC(F)(F)F)c3)nn2[C@@H]2c3cc(F)cc(F)c3C[C@H]2O)C1` [Example 11a, 1-[1-((1R,2R)-4,6-Difluoro-2-hydroxy-indan-1-yl)-3-(3-trifluoromethoxy-phenyl)-1,4,6,7-tetrahydro-pyrazolo[4,3-c]pyridin-5-yl]-ethanone] yielded an IC50 of 0.171 µM. Against the preceding compound, the IC50 is about 7.4-fold lower.

Regarding `CC(=O)N1CCc2c(c(-c3cccc(F)c3)nn2[C@@H]2c3cc(F)cc(F)c3C[C@H]2O)C1` [Example 11aa, 1-[1-((1R,2R)-4,6-Difluoro-2-hydroxy-indan-1-yl)-3-(3-fluoro-phenyl)-1,4,6,7-tetrahydro-pyrazolo[4,3-c]pyridin-5-yl]-ethanone], the IC50 turned out to be 2.22 µM.

Regarding `CC(=O)N1CCc2c(c(-c3ccc(Cl)cc3)nn2[C@@H]2c3cc(F)cc(F)c3C[C@H]2O)C1` [Example 11ab, 1-[3-(4-Chloro-phenyl)-1-((1R,2R)-4,6-difluoro-2-hydroxy-indan-1-yl)-1,4,6,7-tetrahydro-pyrazolo[4,3-c]pyridin-5-yl]-ethanone], the IC50 is 2.97 µM.

`COc1ccc(-c2nn([C@@H]3c4cc(F)cc(F)c4C[C@H]3O)c3c2CN(C(C)=O)CC3)cc1` [Example 11ad, 1-[1-((1R,2R)-4,6-Difluoro-2-hydroxy-indan-1-yl)-3-(4-methoxy-phenyl)-1,4,6,7-tetrahydro-pyrazolo[4,3-c]pyridin-5-yl]-ethanone] had an IC50 of 6.89 µM. Against the preceding compound, the IC50 is about 2.3-fold higher.

As to `CC(=O)N1CCc2c(c(-c3cccc(Cl)c3)nn2[C@H]2c3cc(F)cc(F)c3C[C@@H]2O)C1` [Example 11b, 1-[3-(3-Chloro-phenyl)-1-((1S,2S)-4,6-difluoro-2-hydroxy-indan-1-yl)-1,4,6,7-tetrahydro-pyrazolo[4,3-c]pyridin-5-yl]-ethanone], the IC50 turned out to be 0.19 µM.

As to `COc1ccc(F)c(-c2nn([C@@H]3c4cc(F)cc(F)c4C[C@H]3O)c3c2CN(C(C)=O)CC3)c1` [Example 11c, 1-[1-((1R,2R)-4,6-Difluoro-2-hydroxy-indan-1-yl)-3-(2-fluoro-5-methoxy-phenyl)-1,4,6,7-tetrahydro-pyrazolo[4,3-c]pyridin-5-yl]-ethanone], the IC50 is 0.204 µM.

In turn, `CC(=O)N1CCc2c(c(-c3cccc(C#N)c3)nn2[C@@H]2c3cc(F)cc(Br)c3C[C@H]2O)C1` [Example 11d, 3-[5-Acetyl-1-((1R,2R)-4-bromo-6-fluoro-2-hydroxy-indan-1-yl)-4,5,6,7-tetrahydro-1H-pyrazolo[4,3-c]pyridin-3-yl]-benzonitrile] yielded an IC50 of 0.226 µM.

`CC(=O)N1CCc2c(c(-c3cccc(C(F)(F)F)n3)nn2[C@@H]2c3cc(F)cc(F)c3C[C@H]2O)C1` [Example 11e, 1-[1-((1R,2R)-4,6-Difluoro-2-hydroxy-indan-1-yl)-3-(6-trifluoromethyl-pyridin-2-yl)-1,4,6,7-tetrahydro-pyrazolo[4,3-c]pyridin-5-yl]-ethanone] returned an IC50 of 0.239 µM.

`CC(=O)N1CCc2c(c(-c3ccc(F)c(C(F)(F)F)c3)nn2[C@@H]2c3cc(F)cc(F)c3C[C@H]2O)C1` [Example 11f, 1-[1-((1R,2R)-4,6-Difluoro-2-hydroxy-indan-1-yl)-3-(4-fluoro-3-trifluoromethyl-phenyl)-1,4,6,7-tetrahydro-pyrazolo[4,3-c]pyridin-5-yl]-ethanone]: inhibition was half-maximal at 0.27 µM (IC50). The IC50 values of the last two compounds are within 1.5-fold of each other.

For `CC(=O)N1CCc2c(c(-c3cccc(C#N)c3)nn2[C@@H]2c3cc(Cl)cc(Cl)c3C[C@H]2O)C1` [Example 11g, 3-[5-Acetyl-1-((1R,2R)-4,6-dichloro-2-hydroxy-indan-1-yl)-4,5,6,7-tetrahydro-1H-pyrazolo[4,3-c]pyridin-3-yl]-benzonitrile], the midpoint of inhibition, the IC50, lay at 0.35 µM.

The compound `CC(=O)N1CCc2c(c(-c3cccc(C(F)(F)F)c3)nn2[C@H]2c3cc(F)cc(F)c3C[C@@H]2O)C1` [Example 11h, 1-[1-((1S,2S)-4,6-Difluoro-2-hydroxy-indan-1-yl)-3-(3-trifluoromethyl-phenyl)-1,4,6,7-tetrahydro-pyrazolo[4,3-c]pyridin-5-yl]-ethanone] yielded a half-maximal inhibitory concentration (IC50) of 0.37 µM.

On to `COc1cccc(-c2nn([C@@H]3c4cc(F)cc(F)c4C[C@H]3O)c3c2CN(C(C)=O)CC3)c1` [Example 11k, 1-[1-((1R,2R)-4,6-Difluoro-2-hydroxy-indan-1-yl)-3-(3-methoxy-phenyl)-1,4,6,7-tetrahydro-pyrazolo[4,3-c]pyridin-5-yl]-ethanone], for which half-maximal inhibition (IC50) was put at 0.442 µM.

`CC(=O)N1CCc2c(c(-c3ccc(F)cc3)nn2[C@@H]2c3cc(F)cc(F)c3C[C@H]2O)C1` [Example 11l, 1-[1-((1R,2R)-4,6-Difluoro-2-hydroxy-indan-1-yl)-3-(4-fluoro-phenyl)-1,4,6,7-tetrahydro-pyrazolo[4,3-c]pyridin-5-yl]-ethanone] registered an IC50 of 0.495 µM.

With `CC(=O)N1CCc2c(c(-c3cccc(C(F)(F)F)n3)nn2[C@@H]2c3cc(Cl)cc(Cl)c3C[C@H]2O)C1` [Example 11m, 1-[1-((1R,2R)-4,6-Dichloro-2-hydroxy-indan-1-yl)-3-(6-trifluoromethyl-pyridin-2-yl)-1,4,6,7-tetrahydro-pyrazolo[4,3-c]pyridin-5-yl]-ethanone], 0.518 µM corresponded to half-maximal inhibition (IC50).

With `CC(=O)N1CCc2c(c(-c3ccc(F)cc3)nn2[C@@H]2c3cc(Cl)cc(F)c3C[C@H]2O)C1` [Example 11n, 1-[1-((1R,2R)-6-Chloro-4-fluoro-2-hydroxy-indan-1-yl)-3-(4-fluoro-phenyl)-1,4,6,7-tetrahydro-pyrazolo[4,3-c]pyridin-5-yl]-ethanone], the IC50 amounted to 0.568 µM.

Compound `CC(=O)N1CCc2c(c(-c3cccc(C#N)c3)nn2[C@H]2c3cc(F)cc(F)c3C[C@@H]2O)C1` [Example 11o, 3-[5-Acetyl-1-((1S,2S)-4,6-difluoro-2-hydroxy-indan-1-yl)-4,5,6,7-tetrahydro-1H-pyrazolo[4,3-c]pyridin-3-yl]-benzonitrile] displayed an IC50 of 0.675 µM.

Compound `CC(=O)N1CCc2c(c(-c3cccc(C#N)c3)nn2[C@@H]2c3cc(Cl)ccc3C[C@H]2O)C1` [Example 11p, 3-[5-Acetyl-1-((1R,2R)-6-chloro-2-hydroxy-indan-1-yl)-4,5,6,7-tetrahydro-1H-pyrazolo[4,3-c]pyridin-3-yl]-benzonitrile] gave a 50% inhibitory concentration (IC50) of 0.685 µM.

Take `CC(=O)N1CCc2c(c(-c3cccc(C(F)(F)F)c3)nn2[C@@H]2c3cc(F)cc(F)c3C[C@H]2O)C1` [Example 11q, 1-[1-((1R,2R)-4,6-Difluoro-2-hydroxy-indan-1-yl)-3-(3-trifluoromethyl-phenyl)-1,4,6,7-tetrahydro-pyrazolo[4,3-c]pyridin-5-yl]-ethanone]: 0.773 µM corresponded to half-maximal inhibition (IC50).

With `CC(=O)N1CCc2c(c(-c3cccc(OC(F)(F)F)c3)nn2[C@H]2c3cc(F)cc(F)c3C[C@@H]2O)C1` [Example 11r, 1-[1-((1S,2S)-4,6-Difluoro-2-hydroxy-indan-1-yl)-3-(3-trifluoromethoxy-phenyl)-1,4,6,7-tetrahydro-pyrazolo[4,3-c]pyridin-5-yl]-ethanone], the IC50 turned out to be 0.789 µM. This IC50 and that of the compound before are within 1.5-fold of each other.

In turn, `CC(=O)N1CCc2c(c(-c3ccc(F)cc3)nn2[C@@H]2c3cc(Cl)ccc3C[C@H]2O)C1` [Example 11s, 1-[1-((1R,2R)-6-Chloro-2-hydroxy-indan-1-yl)-3-(4-fluoro-phenyl)-1,4,6,7-tetrahydro-pyrazolo[4,3-c]pyridin-5-yl]-ethanone] yielded an IC50 of 0.804 µM.

For orientation: inhibition means how much of the control response was suppressed. Low values mean little suppression, high ones strong suppression. One may read the IC50 as the concentration that gives 50% inhibition.
